We go through 10 compounds from patent US8791303B2, “Herbicides” (Syngenta Limited, priority 2009, dated 2014).

Format in all cases: in vivo
Data set [1] deals with Winter Wheat variety 'Hereward'. Put plainly: Example B crop damage test, post-emergence, wheat seed treated with safener cloquintocet mexyl. The following applies: Rate 250 g/ha; post-emergence spray 8 days after sowing; seed treated with cloquintocet mexyl 0.5 g/kg dry seed; evaluated after 13 days. How it is done:
Seeds of the Winter Wheat variety ‘Hereward’ were seed treated with a wettable powder formulation of the cereal herbicide safener, cloquintocet mexyl, at a rate of 0.5 grams per kilogram of dry seed prior to the initiation of glasshouse testing. One seed was sown per 1.5 inch plastic pot into a sandy loam soil at a depth of 1 cm, 8 days prior to application of the test compounds and was watered and grown under controlled conditions in a glasshouse (at 24/16° C., day/night; 14 hours light; 65% humidity). The plants were sprayed post-emergence with an aqueous spray solution derived from the formulation of the technical active ingredient in acetone/water (50:50) solution containing 0.5% Tween 20 (polyoxyethelyene sorbitan monolaurate, CAS RN 9005-64-5).
(§1) The test plants were then grown in a glasshouse under controlled conditions in a glasshouse (at 24/16° C., day/night; 14 hours light; 65% humidity) and watered twice daily. After 13 days for pre and post-emergence, the test was evaluated (100=total damage to plant; 0=no damage to plant).

For data set [2] the test system is unchanged. Put plainly: Example B crop damage test, post-emergence, unsafened wheat. The following applies: Rate 250 g/ha; post-emergence spray after 8 days cultivation; no safener; evaluated after 13 days. How it is done:
Seeds of the Winter Wheat variety ‘Hereward’ were sown in standard soil in pots. After 8 days cultivation under controlled conditions in a glasshouse (at 24/16° C., day/night; 14 hours light; 65% humidity), the plants were sprayed post-emergence with an aqueous spray solution derived from the formulation of the technical active ingredient in acetone/water (50:50) solution containing 0.5% Tween 20 (polyoxyethelyene sorbitan monolaurate, CAS RN 9005-64-5).
as §1

Data set [3] deals with Echinochloa crus-galli (ECHCG). Put plainly: Example A glasshouse herbicide test, pre-emergence, ECHCG. To be noted: Echinochloa crus-galli, pre-emergence, 312 h, Rate 250 g/ha, sprayed after cultivation for one day, evaluated after 13 days, read-out: Pre-Emergence Activity ECHCG (100=total damage to plant; 0=no damage to plant). As for the experimental part:
(§2) Seeds of a variety of test species are sown in standard soil in pots. After cultivation for one day (pre-emergence) or after 8 days cultivation (post-emergence) under controlled conditions in a glasshouse (at 24/16° C., day/night; 14 hours light; 65% humidity), the plants are sprayed with an aqueous spray solution derived from the formulation of the technical active ingredient in acetone/water (50:50) solution containing 0.5% Tween 20 (polyoxyethelyene sorbitan monolaurate, CAS RN 9005-64-5).
(§3) The test plants are then grown in a glasshouse under controlled conditions in a glasshouse (at 24/16° C., day/night; 14 hours light; 65% humidity) and watered twice daily. After 13 days for pre and post-emergence, the test is evaluated (100=total damage to plant; 0=no damage to plant).
(§4) Lolium perenne (LOLPE), Alopecurus myosuroides (ALOMY), Echinochloa crus-galli (ECHCG), Avena fatua (AVEFA)

The test system of data set [4] is Lolium perenne (LOLPE). Put plainly: Example A glasshouse herbicide test, pre-emergence, LOLPE. The following applies: Lolium perenne, pre-emergence, 312 h, Rate 250 g/ha, sprayed after cultivation for one day, evaluated after 13 days, read-out: Pre-Emergence Activity LOLPE (100=total damage to plant; 0=no damage to plant). As for the experimental part:
as §2, §3, §4

The test system of data set [5] is Lolium perenne (LOLPE). Put plainly: Example A glasshouse herbicide test, post-emergence, LOLPE. The following applies: Lolium perenne, post-emergence, 312 h, Rate 250 g/ha, sprayed after 8 days cultivation, evaluated after 13 days, read-out: Post-Emergence Activity LOLPE (100=total damage to plant; 0=no damage to plant). As for the experimental part:
as §2, §3, §4

For data set [6], the system named is Echinochloa crus-galli (ECHCG). Briefly: Example A glasshouse herbicide test, post-emergence, ECHCG. To be noted: Echinochloa crus-galli, post-emergence, 312 h, Rate 250 g/ha, sprayed after 8 days cultivation, evaluated after 13 days, read-out: Post-Emergence Activity ECHCG (100=total damage to plant; 0=no damage to plant). As for the experimental part:
as §2, §3, §4

Data set [7] deals with Avena fatua (AVEFA). Briefly: Example A glasshouse herbicide test, post-emergence, AVEFA. The following applies: Avena fatua, post-emergence, 312 h, Rate 250 g/ha, sprayed after 8 days cultivation, evaluated after 13 days, read-out: Post-Emergence Activity AVEFA (100=total damage to plant; 0=no damage to plant). As for the experimental part:
as §2, §3, §4

Data set [8] deals with Alopecurus myosuroides (ALOMY). Briefly: Example A glasshouse herbicide test, pre-emergence, ALOMY. To be noted: Alopecurus myosuroides, pre-emergence, 312 h, Rate 250 g/ha, sprayed after cultivation for one day, evaluated after 13 days, read-out: Pre-Emergence Activity ALOMY (100=total damage to plant; 0=no damage to plant). How it is done: as §2, §3, §4
Data set [9] deals with Avena fatua (AVEFA). Put plainly: Example A glasshouse herbicide test, pre-emergence, AVEFA. To be noted: Avena fatua, pre-emergence, 312 h, Rate 250 g/ha, sprayed after cultivation for one day, evaluated after 13 days, read-out: Pre-Emergence Activity AVEFA (100=total damage to plant; 0=no damage to plant). How it is done: as §2, §3, §4
Data set [10] deals with Alopecurus myosuroides (ALOMY). Put plainly: Example A glasshouse herbicide test, post-emergence, ALOMY. To be noted: Alopecurus myosuroides, post-emergence, 312 h, Rate 250 g/ha, sprayed after 8 days cultivation, evaluated after 13 days, read-out: Post-Emergence Activity ALOMY (100=total damage to plant; 0=no damage to plant). How it is done:
as §2, §3, §4

For `C=C(C)C1CCC(/C=C2\CC(=O)C(c3c(C)cc(C)cc3C)C2=O)CC1` (stereo not shown) [Compound A5], the “Winter Wheat (Hereward) + cloquintocet mexyl damage (100=total damage to plant; 0=no damage to plant)” value in [1] was determined as 0. Moreover, the “Winter Wheat (Hereward) damage (100=total damage to plant; 0=no damage to plant)” value in data set [2] was found to be 10. Besides, the pest or weed control at 250 g/ha in data set [3] is 80%; in the data set on Lolium perenne (LOLPE) [4], 40%; in the data set with Lolium perenne (LOLPE) [5], 30%; in data set [6], 30%; in the data set with Avena fatua (AVEFA) [7], 20%; in [8], 30%. For the same compound, the pest or weed control at 250 g/ha amounted to 0% in the data set on Avena fatua (AVEFA) [9] and 30% in data set [10].

Turning to `Cc1cc(C)c(C2C(=O)CC(CC3CC(C)CCC3C)C2=O)c(C)c1` (stereo not shown) [Compound A6], the “Winter Wheat (Hereward) + cloquintocet mexyl damage (100=total damage to plant; 0=no damage to plant)” value in data set [1] was 0. For the same compound, the “Winter Wheat (Hereward) damage (100=total damage to plant; 0=no damage to plant)” value in data set [2] is 10. Further, the pest or weed control at 250 g/ha was determined as 90% in [3]; 100% in the data set with Lolium perenne (LOLPE) [4]; 80% in the data set with Lolium perenne (LOLPE) [5]; 80% in [6]; 60% with Avena fatua (AVEFA) [7]; 50% in data set [8]. The pest or weed control at 250 g/ha is 50% in the data set on Avena fatua (AVEFA) [9] and 80% in data set [10].

Consider `Cc1cc(Br)cc(C)c1C1C(=O)C/C(=C\C2CCCCC2)C1=O` (stereo not shown) [Compound A7], for which, in [1], the “Winter Wheat (Hereward) + cloquintocet mexyl damage (100=total damage to plant; 0=no damage to plant)” value was 0. Further, the “Winter Wheat (Hereward) damage (100=total damage to plant; 0=no damage to plant)” value in data set [2] stood at 20. Also, the pest or weed control at 250 g/ha in data set [3] worked out at 50%; with Lolium perenne (LOLPE) [4] it was 60%; in the data set on Lolium perenne (LOLPE) [5], 30%; in data set [6] it was 80%; in the data set on Avena fatua (AVEFA) [7] it was 40%; in data set [8] it was 40%. Further, the values for the pest or weed control at 250 g/ha (with Avena fatua (AVEFA) [9]; in data set [10]) were 20% and 50%, respectively.

As for `Cc1cc(C)c(C2C(=O)CC(CC3CCC(=NO)CC3)C2=O)c(C)c1` (stereo not shown) [Compound A8], in data set [1], the “Winter Wheat (Hereward) + cloquintocet mexyl damage (100=total damage to plant; 0=no damage to plant)” value came out at 10. In addition, in data set [2], the “Winter Wheat (Hereward) damage (100=total damage to plant; 0=no damage to plant)” value amounted to 30. In addition, the pest or weed control at 250 g/ha in data set [3] was 90%; in the data set on Lolium perenne (LOLPE) [4] it was 90%; with Lolium perenne (LOLPE) [5], 100%; in [6] it was 50%; with Avena fatua (AVEFA) [7] it was 90%; in [8], 60%. For the same compound, the figures for the pest or weed control at 250 g/ha (in the data set with Avena fatua (AVEFA) [9]; in data set [10]) were 40% and 70%, respectively.

`Cc1cccc(C)c1C1C(=O)CC(CC2CCCCC2)C1=O` (stereo not shown) [Compound A10, 4-cyclohexylmethyl-2-(2,6-dimethyl-phenyl)-cyclopentane-1,3-dione]: the “Winter Wheat (Hereward) + cloquintocet mexyl damage (100=total damage to plant; 0=no damage to plant)” value in [1] is given as 0. Moreover, in [2], the “Winter Wheat (Hereward) damage (100=total damage to plant; 0=no damage to plant)” value is given as 10. Moreover, the pest or weed control at 250 g/ha came to 20% in data set [3]; 80% with Lolium perenne (LOLPE) [4]; 40% in the data set on Lolium perenne (LOLPE) [5]; 70% in [6]; 20% in the data set on Avena fatua (AVEFA) [7]; 0% in data set [8]. Also, the pest or weed control at 250 g/ha with Avena fatua (AVEFA) [9] worked out at 0%; in data set [10], 20%.

Regarding `Cc1cc(Br)cc(C)c1C1C(=O)CC(CC2CCCCC2)C1=O` (stereo not shown) [Compound A11], the “Winter Wheat (Hereward) + cloquintocet mexyl damage (100=total damage to plant; 0=no damage to plant)” value in data set [1] is on record as 0. In addition, the “Winter Wheat (Hereward) damage (100=total damage to plant; 0=no damage to plant)” value in [2] was found to be 0. Also, the pest or weed control at 250 g/ha worked out at 0% in data set [3]; 20% with Lolium perenne (LOLPE) [4]; 50% in the data set on Lolium perenne (LOLPE) [5]; 20% in data set [6]; 0% in the data set on Avena fatua (AVEFA) [7]; 0% in data set [8]. Further, the pest or weed control at 250 g/ha in the data set on Avena fatua (AVEFA) [9] is 0%; in data set [10], 10%.

`Cc1cc(C)c(C2C(=O)CC(CC3CCC3)C2=O)c(C)c1` (stereo not shown) [Compound A25]: the “Winter Wheat (Hereward) + cloquintocet mexyl damage (100=total damage to plant; 0=no damage to plant)” value in data set [1] is 0. In addition, the “Winter Wheat (Hereward) damage (100=total damage to plant; 0=no damage to plant)” value in data set [2] came out at 30. In addition, the pest or weed control at 250 g/ha in data set [3] amounted to 100%; in the data set on Lolium perenne (LOLPE) [4], 100%; with Lolium perenne (LOLPE) [5] it was 100%; in [6], 90%; in the data set with Avena fatua (AVEFA) [7], 80%; in data set [8], 100%. Moreover, the pest or weed control at 250 g/ha (in the data set with Avena fatua (AVEFA) [9]; in data set [10]) was 60% each time.

Regarding `Cc1cc(C)c(C2C(=O)C/C(=C\C3CCCCC3C)C2=O)c(C)c1` (stereo not shown) [Compound A26], the “Winter Wheat (Hereward) + cloquintocet mexyl damage (100=total damage to plant; 0=no damage to plant)” value in data set [1] was determined as 20. Further, in data set [2], the “Winter Wheat (Hereward) damage (100=total damage to plant; 0=no damage to plant)” value worked out at 40. Also, the pest or weed control at 250 g/ha was determined as 100% in data set [3]; 100% in the data set with Lolium perenne (LOLPE) [4]; 90% with Lolium perenne (LOLPE) [5]; 70% in data set [6]; 50% in the data set on Avena fatua (AVEFA) [7]; 90% in [8]. Moreover, the pest or weed control at 250 g/ha in the data set with Avena fatua (AVEFA) [9] came to 90%; in data set [10], 60%.

Turning to `Cc1cc(C)c(C2C(=O)C/C(=C\C3CC3)C2=O)c(C)c1` (stereo not shown) [Compound A27, 4-[1-Cyclopropyl-methylidene]-2-(2,4,6-trimethyl-phenyl)-cyclopentane-1,3-dione], in data set [1], the “Winter Wheat (Hereward) + cloquintocet mexyl damage (100=total damage to plant; 0=no damage to plant)” value turned out to be 0. Besides, the “Winter Wheat (Hereward) damage (100=total damage to plant; 0=no damage to plant)” value in [2] was 40. Besides, the pest or weed control at 250 g/ha in data set [3] was 100%; in the data set with Lolium perenne (LOLPE) [4], 100%; with Lolium perenne (LOLPE) [5], 100%; in data set [6] it was 100%; with Avena fatua (AVEFA) [7], 70%; in data set [8], 90%. In addition, the pest or weed control at 250 g/ha in the data set with Avena fatua (AVEFA) [9] came out at 70%; in data set [10] it was 60%.

As to `Cc1cc(C)c(C2C(=O)CC(CC3CC3)C2=O)c(C)c1` (stereo not shown) [Compound A28, 4-Cyclopropylmethyl-2-(2,4,6-trimethyl-phenyl)-cyclopentane-1,3-dione], the “Winter Wheat (Hereward) + cloquintocet mexyl damage (100=total damage to plant; 0=no damage to plant)” value in data set [1] is 10. Besides, the “Winter Wheat (Hereward) damage (100=total damage to plant; 0=no damage to plant)” value in [2] worked out at 30. Moreover, the pest or weed control at 250 g/ha in data set [3] was 100%; in the data set with Lolium perenne (LOLPE) [4], 100%; with Lolium perenne (LOLPE) [5], 100%; in [6], 90%; in the data set with Avena fatua (AVEFA) [7], 50%; in data set [8], 90%. Besides, the pest or weed control at 250 g/ha (with Avena fatua (AVEFA) [9]; in [10]) was 70% throughout.
